PubChem BioAssay AID2060623 (Molecular Pharmacology Branch, DTP, NCI, 2025)

System: 227483-062-R1-J1-PDC complex spheroids with HUVEC/MSC, viability
Assay: Anticancer human tumor 227483-062-R1-J1-PDC patient-derived pancreatic carcinoma cell line growth inhibition [CLK]
Conditions: for IC50: curve of first compound; for viability, T/C: stronger effect = lower value
Summary of the method: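 Multi-cell-type spheroids combined patient-derived tumor cells with HUVEC endothelial cells and human mesenchymal stem cells. Paired agents were dosed in half-log steps down from about clinical Cmax, or from 10 microM where Cmax was unknown.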

[1] = second compound 0.0316 µM, first compound 0.00949 µM
[2] = second compound 0.0316 µM, first compound 0.03 µM
[3] = second compound 0.0316 µM, first compound 0.0949 µM
[4] = second compound 0.0316 µM, first compound 0.3 µM
[5] = second compound 0.1 µM, first compound 0.00949 µM
[6] = second compound 0.1 µM, first compound 0.03 µM
[7] = second compound 0.1 µM, first compound 0.0949 µM
[8] = second compound 0.1 µM, first compound 0.3 µM
[9] = second compound 0.316 µM, first compound 0.00949 µM
[10] = second compound 0.316 µM, first compound 0.03 µM
[11] = second compound 0.316 µM, first compound 0.0949 µM
[12] = second compound 0.316 µM, first compound 0.3 µM
[13] = second compound 1 µM, first compound 0.00949 µM
[14] = second compound 1 µM, first compound 0.03 µM
[15] = second compound 1 µM, first compound 0.0949 µM
[16] = second compound 1 µM, first compound 0.3 µM
[17] = second compound 3.16 µM, first compound 0.00949 µM
[18] = second compound 3.16 µM, first compound 0.03 µM
[19] = second compound 3.16 µM, first compound 0.0949 µM
[20] = second compound 3.16 µM, first compound 0.3 µM
[21] = second compound 10 µM, first compound 0.00949 µM
[22] = second compound 10 µM, first compound 0.03 µM
[23] = second compound 10 µM, first compound 0.0949 µM
[24] = second compound 10 µM, first compound 0.3 µM
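Note: spheroids exposed to compounds for seven days before readout.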
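Throughout, for viability, T/C: percent of DMSO vehicle control luminescence as 100% viability.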

In the case of `C=CC(=O)Nc1cc(Nc2nccc(-c3cn(C)c4ccccc34)n2)c(OC)cc1N(C)CCN(C)C` + CNC(=O)c1ccc(Nc2nc(OC3CCCC3)c3c(-c4ccc5nc(C)oc5c4)c[nH]c3n2)c(OC)c1, the IC50 (second compound 0.0316 µM) is reported as greater than 300 nM, the IC50 (second compound 0.1 µM) is reported as greater than 300 nM and the IC50 (second compound 0.316 µM) is reported as greater than 300 nM. It also gave an IC50 (second compound 1 µM) greater than 300 nM, an IC50 (second compound 3.16 µM) of less than 0.949 nM and an IC50 (second compound 10 µM) of less than 0.949 nM. For the same molecule, the viability, T/C (second compound 0.0316 µM, first compound 0.000949 µM) was 95.2%, the viability, T/C (second compound 0.0316 µM, first compound 0.003 µM) was 94.2% and the viability, T/C [1] was 108%. It also gave a viability, T/C [2] of 98.6%, a viability, T/C [3] of 76.4% and a viability, T/C [4] of 80.8%. For the same molecule, the viability, T/C (second compound 0.1 µM, first compound 0.000949 µM) was 93.7%, the viability, T/C (second compound 0.1 µM, first compound 0.003 µM) was 103% and the viability, T/C [5] was 85.4%. For the same molecule, the viability, T/C [6] was 102%, the viability, T/C [7] was 71.9% and the viability, T/C [8] was 69.7%. The viability, T/C (second compound 0.316 µM, first compound 0.000949 µM) was 73.1%, the viability, T/C (second compound 0.316 µM, first compound 0.003 µM) was 84.8% and the viability, T/C [9] was 89.9%. It also gave a viability, T/C [10] of 63.8%, a viability, T/C [11] of 83.7% and a viability, T/C [12] of 60.3%. It also gave a viability, T/C (second compound 1 µM, first compound 0.000949 µM) of 58.6%, a viability, T/C (second compound 1 µM, first compound 0.003 µM) of 50.4% and a viability, T/C [13] of 69.6%. For the same molecule, the viability, T/C [14] was 66.1%, the viability, T/C [15] was 56.2% and the viability, T/C [16] was 49.6%. It also gave a viability, T/C (second compound 3.16 µM, first compound 0.000949 µM) of 45.4%, a viability, T/C (second compound 3.16 µM, first compound 0.003 µM) of 47.5% and a viability, T/C [17] of 52.5%. The viability, T/C [18] was 42.2%, the viability, T/C [19] was 51.1% and the viability, T/C [20] was 52.2%. The viability, T/C (second compound 10 µM, first compound 0.000949 µM) was 42.5%, the viability, T/C (second compound 10 µM, first compound 0.003 µM) was 41.9% and the viability, T/C [21] was 38.4%. It also gave a viability, T/C [22] of 40.9%, a viability, T/C [23] of 51.4% and a viability, T/C [24] of 32.9%.
Work on `NC(=O)C(=Cn1cnc(-c2cc(C(F)(F)F)cc(C(F)(F)F)c2)n1)c1cncnc1` + CNC(=O)c1ccc(Nc2nc(OC3CCCC3)c3c(-c4ccc5nc(C)oc5c4)c[nH]c3n2)c(OC)c1 yielded an IC50 (second compound 0.0316 µM) of 379 nM, an IC50 (second compound 0.1 µM) of 332 nM and an IC50 (second compound 0.316 µM) of 192 nM. For the same molecule, the IC50 (second compound 1 µM) was 31.8 nM, the IC50 (second compound 3.16 µM) was less than 9.49 nM and the IC50 (second compound 10 µM) was less than 9.49 nM. The viability, T/C [1] was 73.6%, the viability, T/C [2] was 81.8% and the viability, T/C [3] was 73.2%. The viability, T/C [4] was 53.4%, the viability, T/C (second compound 0.0316 µM, first compound 0.949 µM) was 29.8% and the viability, T/C (second compound 0.0316 µM, first compound 3 µM) was 9.82%. It also gave a viability, T/C [5] of 86.3%, a viability, T/C [6] of 77.2% and a viability, T/C [7] of 62.4%. For the same molecule, the viability, T/C [8] was 60.7%, the viability, T/C (second compound 0.1 µM, first compound 0.949 µM) was 24.6% and the viability, T/C (second compound 0.1 µM, first compound 3 µM) was 5.03%. The viability, T/C [9] was 61.4%, the viability, T/C [10] was 80.7% and the viability, T/C [11] was 61.2%. For the same molecule, the viability, T/C [12] was 41%, the viability, T/C (second compound 0.316 µM, first compound 0.949 µM) was 14.7% and the viability, T/C (second compound 0.316 µM, first compound 3 µM) was 2.56%. For the same molecule, the viability, T/C [13] was 46.4%, the viability, T/C [14] was 56.3% and the viability, T/C [15] was 43.4%. The viability, T/C [16] was 25.6%, the viability, T/C (second compound 1 µM, first compound 0.949 µM) was 6.77% and the viability, T/C (second compound 1 µM, first compound 3 µM) was 2%. It also gave a viability, T/C [17] of 43%, a viability, T/C [18] of 35.8% and a viability, T/C [19] of 26.9%. It also gave a viability, T/C [20] of 11.7%, a viability, T/C (second compound 3.16 µM, first compound 0.949 µM) of 2.83% and a viability, T/C (second compound 3.16 µM, first compound 3 µM) of 2.08%. The viability, T/C [21] was 40.6%, the viability, T/C [22] was 37.3% and the viability, T/C [23] was 22%. For the same molecule, the viability, T/C [24] was 7.23%, the viability, T/C (second compound 10 µM, first compound 0.949 µM) was 2.36% and the viability, T/C (second compound 10 µM, first compound 3 µM) was 1.41%.
`Nc1ccccc1NC(=O)c1ccc(CNC(=O)OCc2cccnc2)cc1` + CNC(=O)c1ccc(Nc2nc(OC3CCCC3)c3c(-c4ccc5nc(C)oc5c4)c[nH]c3n2)c(OC)c1 showed an IC50 (second compound 0.0316 µM) greater than 10000 nM, an IC50 (second compound 0.1 µM) of 8510 nM and an IC50 (second compound 0.316 µM) of 5130 nM. It also gave an IC50 (second compound 1 µM) of 531 nM, an IC50 (second compound 3.16 µM) of less than 31.6 nM and an IC50 (second compound 10 µM) of less than 31.6 nM. For the same molecule, the viability, T/C (second compound 0.0316 µM, first compound 0.0316 µM) was 90.9%, the viability, T/C (second compound 0.0316 µM, first compound 0.1 µM) was 88.5% and the viability, T/C (second compound 0.0316 µM, first compound 0.316 µM) was 109%. It also gave a viability, T/C (second compound 0.0316 µM, first compound 1 µM) of 111%, a viability, T/C (second compound 0.0316 µM, first compound 3.16 µM) of 118% and a viability, T/C (second compound 0.0316 µM, first compound 10 µM) of 75.8%. The viability, T/C (second compound 0.1 µM, first compound 0.0316 µM) was 73.3%, the viability, T/C (second compound 0.1 µM, first compound 0.1 µM) was 88.6% and the viability, T/C (second compound 0.1 µM, first compound 0.316 µM) was 94.6%. The viability, T/C (second compound 0.1 µM, first compound 1 µM) was 107%, the viability, T/C (second compound 0.1 µM, first compound 3.16 µM) was 96.5% and the viability, T/C (second compound 0.1 µM, first compound 10 µM) was 43%. It also gave a viability, T/C (second compound 0.316 µM, first compound 0.0316 µM) of 82.1%, a viability, T/C (second compound 0.316 µM, first compound 0.1 µM) of 72.9% and a viability, T/C (second compound 0.316 µM, first compound 0.316 µM) of 78.7%. It also gave a viability, T/C (second compound 0.316 µM, first compound 1 µM) of 78.3%, a viability, T/C (second compound 0.316 µM, first compound 3.16 µM) of 65.8% and a viability, T/C (second compound 0.316 µM, first compound 10 µM) of 28%. It also gave a viability, T/C (second compound 1 µM, first compound 0.0316 µM) of 53.6%, a viability, T/C (second compound 1 µM, first compound 0.1 µM) of 45.7% and a viability, T/C (second compound 1 µM, first compound 0.316 µM) of 53.4%. It also gave a viability, T/C (second compound 1 µM, first compound 1 µM) of 50.1%, a viability, T/C (second compound 1 µM, first compound 3.16 µM) of 40.6% and a viability, T/C (second compound 1 µM, first compound 10 µM) of 14.5%. The viability, T/C (second compound 3.16 µM, first compound 0.0316 µM) was 37.4%, the viability, T/C (second compound 3.16 µM, first compound 0.1 µM) was 44.2% and the viability, T/C (second compound 3.16 µM, first compound 0.316 µM) was 39.7%. The viability, T/C (second compound 3.16 µM, first compound 1 µM) was 30.1%, the viability, T/C (second compound 3.16 µM, first compound 3.16 µM) was 17.3% and the viability, T/C (second compound 3.16 µM, first compound 10 µM) was 7.51%. The viability, T/C (second compound 10 µM, first compound 0.0316 µM) was 33%, the viability, T/C (second compound 10 µM, first compound 0.1 µM) was 30.8% and the viability, T/C (second compound 10 µM, first compound 0.316 µM) was 32.2%. For the same molecule, the viability, T/C (second compound 10 µM, first compound 1 µM) was 19.4%, the viability, T/C (second compound 10 µM, first compound 3.16 µM) was 16.6% and the viability, T/C (second compound 10 µM, first compound 10 µM) was 5.89%.
